Read-outs that look alike come from different tables or passages of the source.
Tested on: H. pylori
Assay: MIC of laboratory H. pylori strains by micro dilution method
Type: cell-based
Conditions: Helicobacter pylori
Experimental: (3) Preparation of bacterial solution: H. pylori grown in logarithmic phase on a solid plate is taken, BHI culture medium is used to prepare a bacterial suspension. The concentration of the bacterial solution is adjusted to 1×10^8 CFU/mL (OD600 is 0.3), diluted 10 times, 100 times, and 1000 times to implement a final concentration of […], for the subsequent use.
(4) Inoculation of bacterial solution: 10 μL of the above bacterial solution for the subsequent use is taken and added to wells the 1-10-th and the 12-th well (bacterial working concentration is 1×10^6 CFU/mL), the 11-th well serves as a non-bacterial control and only sterile water is added. The wells are cultivated for 72 hours to determine the results.

[1] = read-out: MICs, standard sensitive strains G27 and 26695, bacterial count 1×10^6 CFU/mL
[2] = read-out: minimum inhibitory concentration (MIC), strain 159, bacterial count 10^6 CFU/mL (first line of the strain)
[3] = read-out: minimum inhibitory concentration (MIC), strain 161, bacterial count 10^6 CFU/mL (first line of the strain)
[4] = read-out: minimum inhibitory concentration (MIC), strain 162, bacterial count 10^6 CFU/mL (first line of the strain)
[5] = read-out: minimum inhibitory concentration (MIC), strain 163, bacterial count 10^4 CFU/mL
[6] = read-out: minimum inhibitory concentration (MIC), strain 163, bacterial count 10^6 CFU/mL (first line of the strain)
[7] = read-out: minimum inhibitory concentration (MIC), strain 163, bacterial count 10^6 CFU/mL (second line of the strain)
[8] = read-out: minimum inhibitory concentration (MIC), strain 286, bacterial count 10^4 CFU/mL
[9] = read-out: minimum inhibitory concentration (MIC), strain 286, bacterial count 10^6 CFU/mL (first line of the strain)
[10] = read-out: minimum inhibitory concentration (MIC), strain 286, bacterial count 10^6 CFU/mL (second line of the strain)
[11] = read-out: minimum inhibitory concentration (MIC), strain 287, bacterial count 10^6 CFU/mL (first line of the strain)
[12] = read-out: minimum inhibitory concentration (MIC), strain 287, bacterial count 10^6 CFU/mL (second line of the strain)
[13] = read-out: minimum inhibitory concentration (MIC), strain 289, bacterial count 10^4 CFU/mL
[14] = read-out: minimum inhibitory concentration (MIC), strain 289, bacterial count 10^6 CFU/mL (first line of the strain)
[15] = read-out: minimum inhibitory concentration (MIC), strain 289, bacterial count 10^6 CFU/mL (second line of the strain)
[16] = read-out: minimum inhibitory concentration (MIC), strain 290, bacterial count 10^4 CFU/mL
[17] = read-out: minimum inhibitory concentration (MIC), strain 290, bacterial count 10^6 CFU/mL (first line of the strain)
[18] = read-out: minimum inhibitory concentration (MIC), strain 290, bacterial count 10^6 CFU/mL (second line of the strain)
[19] = read-out: minimum inhibitory concentration (MIC), strain 26695, bacterial count 10^6 CFU/mL (second line of the strain)
[20] = strain G27, bacterial count 10^4 CFU/mL, read-out: minimum inhibitory concentration (MIC)
[21] = strain G27, bacterial count 10^6 CFU/mL (first line of the strain), read-out: minimum inhibitory concentration (MIC)
[22] = strain G27, bacterial count 10^6 CFU/mL (second line of the strain), read-out: minimum inhibitory concentration (MIC)
[23] = read-out: minimum inhibitory concentration (MIC), strain 159, bacterial count 10^4 CFU/mL
[24] = read-out: minimum inhibitory concentration (MIC), strain 161, bacterial count 10^4 CFU/mL
[25] = read-out: minimum inhibitory concentration (MIC), strain 161, bacterial count 10^6 CFU/mL (second line of the strain)
[26] = read-out: minimum inhibitory concentration (MIC), strain 162, bacterial count 10^4 CFU/mL
[27] = read-out: minimum inhibitory concentration (MIC), strain 162, bacterial count 10^6 CFU/mL (second line of the strain)
[28] = read-out: minimum inhibitory concentration (MIC), strain 287, bacterial count 10^4 CFU/mL
[29] = resistant strains 159, 161, 162, 163, 286, 287, 289, and 290, bacterial count 1×10^6 CFU/mL, read-out: MICs
[30] = read-out: minimum inhibitory concentration (MIC), strain 159, bacterial count 10^6 CFU/mL (second line of the strain)

Row | Compound | MIC [1] [µg/mL] | MIC [2] [µg/mL] | MIC [3] [µg/mL] | MIC [4] [µg/mL] | MIC [6] [µg/mL] | MIC [7] [µg/mL] | MIC [8] [µg/mL] | MIC [9] [µg/mL] | MIC [10] [µg/mL] | MIC [11] [µg/mL] | MIC [12] [µg/mL] | MIC [13] [µg/mL] | MIC [14] [µg/mL] | MIC [15] [µg/mL] | MIC [16] [µg/mL] | MIC [17] [µg/mL] | MIC [18] [µg/mL] | MIC [20] [µg/mL] | MIC [21] [µg/mL] | MIC [22] [µg/mL] | other results
1 | CC1(C)S[C@@H]2[C@H](NC(=O)[C@H](N)c3ccc(O)cc3)C(=O)N2[C@H]1C(=O)O [Amoxicillin, amoxicillin] | 0.0156 to 0.0325 | 0.125 | 0.125 | 0.125 | 1 | 0.5 | 0.5 | 1 | 0.5 | 0.25 | 0.125 | 0.125 | 1 | 0.5 | 1 | 4 | 2 | 0.00781 | 0.0312 | 0.0156 | MIC [5]: 0.25 µg/mL; MIC (read-out: minimum inhibitory concentration (MIC), strain 26695, bacterial count 10^4 CFU/mL): 0.0325 µg/mL; MIC [19]: 0.0325 µg/mL
2 | CC[C@H]1OC(=O)[C@H](C)[C@@H](O[C@H]2C[C@@](C)(OC)[C@@H](O)[C@H](C)O2)[C@H](C)[C@@H](O[C@@H]2O[C@H](C)C[C@H](N(C)C)[C@H]2O)[C@](C)(OC)C[C@@H](C)C(=O)[C@H](C)[C@@H](O)[C@]1(C)O [Clarithromycin, clarithromycin] | 0.0312 to 0.0625 | – | 2 | 8 | 0.5 | 0.25 | 1 | 8 | 4 | 4 | 2 | 2 | 32 | 8 | 4 | 16 | 4 | 0.0156 | 0.0625 | 0.0312 | MIC [23]: 0.0312 µg/mL; MIC [24]: 0.5 µg/mL; MIC [25]: 1 µg/mL; MIC [26]: 1 µg/mL; MIC [27]: 4 µg/mL; MIC [28]: 8 µg/mL; MIC [29]: 0.0625 to 8 µg/mL; MIC (strain 159, bacterial count 10^6 CFU/mL (first line of the strain), read-out: minimum inhibitory concentration (MIC)): 0.125 µg/mL; MIC (strain 159, bacterial count 10^6 CFU/mL (second line of the strain), read-out: minimum inhibitory concentration (MIC)): 0.0625 µg/mL; MIC (strain 163, bacterial count 10^4 CFU/mL, read-out: minimum inhibitory concentration (MIC)): 0.125 µg/mL; MIC (strain 26695, bacterial count 10^6 CFU/mL (first line of the strain), read-out: minimum inhibitory concentration (MIC)): 0.125 µg/mL; MIC (strain 26695, bacterial count 10^6 CFU/mL (second line of the strain), read-out: minimum inhibitory concentration (MIC)): 0.0625 µg/mL
3 | C[C@H]1COc2c(N3CCN(C)CC3)c(F)cc3c(=O)c(C(=O)O)cn1c23 [Levofloxacin, levofloxacin] | – | 2 | 2 | 8 | 16 | 4 | 0.5 | 1 | 0.5 | 4 | 2 | 2 | 8 | 4 | 16 | 32 | 32 | 0.0312 | 0.125 | 0.0625 | MIC [23]: 0.5 µg/mL; MIC [30]: 1 µg/mL; MIC [24]: 1 µg/mL; MIC [25]: 2 µg/mL; MIC [26]: 2 µg/mL; MIC [27]: 4 µg/mL; MIC [5]: 2 µg/mL; MIC [28]: 1 µg/mL; MIC [29]: 0.5 to 32 µg/mL
4 | Cc1ncc([N+](=O)[O-])n1CCO [Metronidazole, metronidazole] | 0.25 | 4 | 4 | 2 | 16 | 4 | 4 | 32 | 16 | 32 | 16 | 8 | 32 | 16 | 4 | 32 | 16 | 0.125 | 0.5 | 0.5 | MIC [30]: 2 µg/mL; MIC [24]: 1 µg/mL; MIC [25]: 2 µg/mL; MIC [27]: 1 µg/mL; MIC [5]: 2 µg/mL; MIC [28]: 8 µg/mL; MIC [19]: 0.25 µg/mL; MIC [29]: 1 to 16 µg/mL

Source: US12486489B2, “Culture medium for testing drug resistance of H.pylori as well as preparation method and use thereof” (priority 2022, dated 2025)
